In patent US20240158392A1 (Janssen Biotech, Inc., priority 2021, published 2024):
Where two headings read alike, the source gives them in different places.

Target: SIK2 (Homo sapiens, UniProt Q9H0K1)
Assay: SIK2 Enzymatic Assay High Version 2 (High ATP)
Assay type: biochemical
Procedure, shortened: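 At room temperature, enzyme (6 nM, 2× final) was preincubated with compound for 30 min, then 6 mM ATP and 400 μM HDAC5tide (both 2× final) were added for 2 h. ADP formed was measured by ADP-Glo Max (2 h reagent, 1 h detection) using luminescence.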

[1] = enzyme 6 nM, 6 mM ATP and 400 μM HDAC5tide (each 2× final concentration), 30 minutes pre-incubation, 2 hours, ADP-Glo Max luminescence, read-out: SIK2 high ATP IC50 (μM) (Test Example 2)

SIK2, sequence (Q9H0K1 whole entry, species assumed): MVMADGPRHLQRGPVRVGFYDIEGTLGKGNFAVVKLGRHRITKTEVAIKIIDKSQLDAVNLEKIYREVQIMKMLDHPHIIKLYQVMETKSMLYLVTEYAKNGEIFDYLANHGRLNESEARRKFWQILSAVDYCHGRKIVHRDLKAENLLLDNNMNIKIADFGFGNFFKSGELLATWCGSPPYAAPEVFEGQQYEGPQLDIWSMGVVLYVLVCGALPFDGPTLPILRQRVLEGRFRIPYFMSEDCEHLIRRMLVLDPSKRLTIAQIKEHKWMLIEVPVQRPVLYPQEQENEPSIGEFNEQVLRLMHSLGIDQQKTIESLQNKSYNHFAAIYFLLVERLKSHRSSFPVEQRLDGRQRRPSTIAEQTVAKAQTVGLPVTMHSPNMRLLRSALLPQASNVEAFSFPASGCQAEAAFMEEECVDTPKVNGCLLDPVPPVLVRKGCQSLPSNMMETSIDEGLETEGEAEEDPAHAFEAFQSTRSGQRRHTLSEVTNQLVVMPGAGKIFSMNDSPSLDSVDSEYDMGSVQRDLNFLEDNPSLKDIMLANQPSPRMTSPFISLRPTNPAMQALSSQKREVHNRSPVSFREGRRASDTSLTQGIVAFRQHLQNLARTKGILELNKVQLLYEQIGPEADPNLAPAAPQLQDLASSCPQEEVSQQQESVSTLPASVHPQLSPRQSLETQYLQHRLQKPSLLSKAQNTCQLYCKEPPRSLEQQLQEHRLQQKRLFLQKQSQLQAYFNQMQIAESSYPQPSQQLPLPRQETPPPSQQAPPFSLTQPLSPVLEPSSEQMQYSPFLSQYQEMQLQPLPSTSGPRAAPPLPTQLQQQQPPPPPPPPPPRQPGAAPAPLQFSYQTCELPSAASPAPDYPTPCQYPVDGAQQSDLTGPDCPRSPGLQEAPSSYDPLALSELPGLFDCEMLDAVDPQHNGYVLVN

| IC50 [1] [µM] | Compound | IC50 [µM] |
| --- | --- | --- |
| 0.00591 | CC(C)(C#N)COc1cnc(OC(F)F)cc1-c1ccn2nc(Nc3cccnn3)cc2c1 [Example 708, 3-[[6-(difluoromethoxy)-4-[2-(pyridazin-3-ylamino)pyrazolo[1,5-a]pyridin-5-yl]-3-pyridyl]oxy]-2,2-dimethyl-propanenitrile] |  |
|  | Cc1cc(Nc2cc3cc(-c4cc(Cl)ncc4O[C@@H]4[C@@H]5CO[C@H]4CN5)ccn3n2)nc(C)n1 [Example 495, 5-[2-chloro-5-[[(1S,4S,7R)-2-oxa-5-azabicyclo[2.2.1]heptan-7-yl]oxy]-4-pyridyl]-N-(2,6-dimethylpyrimidin-4-yl)pyrazolo[1,5-a]pyridin-2-amine] | 0.0134 |
|  | Cc1cc(-c2ccn3nc(Nc4cc(C)nc(C)n4)cc3c2)c(O[C@H]2C[C@H]3COC[C@@H](C2)N3C#N)cn1 [Example 336, (1S,5R)-7-[[4-[2-[(2,6-dimethylpyrimidin-4-yl)amino]pyrazolo[1,5-a]pyridin-5-yl]-6-methyl-3-pyridyl]oxy]-3-oxa-9-azabicyclo[3.3.1]nonane-9-carbonitrile] | < 0.000847 |
| 0.087 | Cc1cc(-c2ccn3nc(Nc4cc(C)nc(C)n4)cc3c2)c(OC[C@H]2C[C@@H](O)CO2)cn1 [Example 204, (3R,5R)-5-[[4-[2-[(2,6-dimethylpyrimidin-4-yl)amino]pyrazolo[1,5-a]pyridin-5-yl]-6-methyl-3-pyridyl]oxymethyl]tetrahydrofuran-3-ol] |  |
| 0.00304 | Cc1cc(Nc2cc3cc(-c4cc(OC(F)F)ncc4OC[C@@H]4CC(=O)NC4(C)C)ccn3n2)nc(C)n1 (single isomer, unassigned) [Example 738, (*R)-4-[[6-(difluoromethoxy)-4-[2-[(2,6-dimethylpyrimidin-4-yl)amino]pyrazolo[1,5-a]pyridin-5-yl]-3-pyridyl]oxymethyl]-5,5-dimethyl-pyrrolidin-2-one] |  |
| 0.0371 | Cc1cc(-c2ccn3nc(Nc4cc(C)nc(C)n4)cc3c2)c(O[C@H]2CC[C@@H](C#N)CC2)cn1 [Example 556, (1s,4s)-4-((4-(2-((2,6-dimethylpyrimidin-4-yl)amino)pyrazolo[1,5-a]pyridin-5-yl)-6-methylpyridin-3-yl)oxy)cyclohexane-1-carbonitrile] |  |
| 0.0119 | Cc1cc(-c2ccn3nc(NC(=O)C4CC4)cc3c2)c(OCC2(O)CCNC2)cn1 (single isomer, unassigned) [Example 222, (*S)—N-[5-[5-[(3-hydroxypyrrolidin-3-yl)methoxy]-2-methyl-4-pyridyl]pyrazolo[1,5-a]pyridin-2-yl]cyclopropanecarboxamide] |  |
| 0.00639 | CC#Cc1cc(-c2ccn3nc(Nc4cnn(C)c4)cc3c2)c(OC[C@H]2OCC[C@@H]2O)cn1 [Example 300, (2R,3S)-2-[[4-[2-[(1-methylpyrazol-4-yl)amino]pyrazolo[1,5-a]pyridin-5-yl]-6-prop-1-ynyl-3-pyridyl]oxymethyl]tetrahydrofuran-3-ol] |  |
|  | Cc1cc(-c2ccn3nc(Nc4ccc(F)cn4)cc3c2)c(O[C@H]2C[C@H]3COC[C@@H](C2)N3C)cn1 [Example 126] | < 0.000847 |
| 0.0724 | Cc1cc(-c2ccn3nc(Nc4cc(C)nc(C)n4)cc3c2)c(O[C@H]2COC(C)(C)C2)cn1 (single isomer, unassigned) [Example 577, (*R)—N-(2,6-dimethylpyrimidin-4-yl)-5-[5-(5,5-dimethyltetrahydrofuran-3-yl)oxy-2-methyl-4-pyridyl]pyrazolo[1,5-a]pyridin-2-amine] |  |
| 0.0943 | Cc1cc(-c2ccn3nc(NC(=O)C4CC4)cc3c2)c(OC[C@@H](N)C(F)(F)F)cn1 [Example 570, N-[5-[5-[(2R)-2-amino-3,3,3-trifluoro-propoxy]-2-methyl-4-pyridyl]pyrazolo[1,5-a]pyridin-2-yl]cyclopropanecarboxamide] |  |
|  | Cc1cnc(Nc2cc3cc(-c4cc(C)ncc4O[C@H]4C[C@H]5COC[C@@H](C4)N5)ccn3n2)nc1 [Example 391, 5-(5-(((1R,5S,7s)-3-oxa-9-azabicyclo[3.3.1]nonan-7-yl)oxy)-2-methylpyridin-4-yl)-N-(5-methylpyrimidin-2-yl)pyrazolo[1,5-a]pyridin-2-amine] | < 0.000847 |
| 0.00746 | CC(C)(C#N)COc1cnc(OC(F)F)cc1-c1ccn2nc(Nc3cnc(C(C)(C)O)cn3)cc2c1 [Example 713, 3-[[6-(difluoromethoxy)-4-[2-[[5-(1-hydroxy-1-methyl-ethyl)pyrazin-2-yl]amino]pyrazolo[1,5-a]pyridin-5-yl]-3-pyridyl]oxy]-2,2-dimethyl-propanenitrile] |  |
| 0.0279 | Cc1cc(C(=O)NCC(C)(C)O)cc(Nc2cc3cc(-c4cc(OC(F)F)ncc4OCC(C)(C)C#N)ccn3n2)n1 [Example 701, 2-[[5-[5-(2-cyano-2-methyl-propoxy)-2-(difluoromethoxy)-4-pyridyl]pyrazolo[1,5-a]pyridin-2-yl]amino]-N-(2-hydroxy-2-methyl-propyl)-6-methyl-pyridine-4-carboxamide] |  |
| 0.0619 | Cc1cc(-c2ccn3nc(Nc4cc(C)c(=O)n(C5CC5)n4)cc3c2)c(OC[C@@H]2COCCO2)cn1 [Example 561, 2-cyclopropyl-6-[[5-[5-[[(2S)-1,4-dioxan-2-yl]methoxy]-2-methyl-4-pyridyl]pyrazolo[1,5-a]pyridin-2-yl]amino]-4-methyl-pyridazin-3-one] |  |
| 0.0943 | Cc1cc(-c2cn3cc(NC(=O)C4CC4)nc3cn2)c(O[C@H]2CC[C@@H](O)CC2)cn1 [Example 655, N-[6-[5-(4-hydroxycyclohexoxy)-2-methyl-4-pyridyl]imidazo[1,2-a]pyrazin-2-yl]cyclopropanecarboxamide] |  |
| 0.0585 | Cc1cc(-c2ccn3nc(Nc4cc(C)nc(C)n4)cc3c2)c(OC[C@H]2COC(C)(C)C2)cn1 (single isomer, unassigned) [Example 540, (*S)—N-(2,6-dimethylpyrimidin-4-yl)-5-[5-[(5,5-dimethyltetrahydrofuran-3-yl)methoxy]-2-methyl-4-pyridyl]pyrazolo[1,5-a]pyridin-2-amine] |  |
| 0.00685 | Cc1cc(Nc2cc3cc(-c4cc(OCC#N)ncc4O[C@H]4CC[C@H](O)CC4)ccn3n2)nc(C)n1 [Example 690, 2-[[4-[2-[(2,6-dimethylpyrimidin-4-yl)amino]pyrazolo[1,5-a]pyridin-5-yl]-5-(4-hydroxycyclohexoxy)-2-pyridyl]oxy]acetonitrile] |  |
|  | CNC(=O)c1c(C)cc(Nc2cc3cc(-c4cc(C)ncc4O[C@H]4C[C@H]5COC[C@@H](C4)N5C(C)=O)ccn3n2)nc1C [Example 358, 6-[[5-[5-[[(1R,5S,7s)-9-acetyl-3-oxa-9-azabicyclo[3.3.1]nonan-7-yl]oxy]-2-methyl-4-pyridyl]pyrazolo[1,5-a]pyridin-2-yl]amino]-N,2,4-trimethyl-pyridine-3-carboxamide] | 0.00783 |
| 0.0445 | Cc1cc(-c2ccn3nc(Nc4cc(C)nc(C)n4)cc3c2)c(OCC(C)(C)O)cn1 [Example 200, 1-[[4-[2-[(2,6-dimethylpyrimidin-4-yl)amino]pyrazolo[1,5-a]pyridin-5-yl]-6-methyl-3-pyridyl]oxy]-2-methyl-propan-2-ol] |  |
| 0.0469 | Cc1cc(-c2ccn3nc(Nc4cc(C)nc(C)n4)cc3c2)c(OC[C@@]2(O)CCOC2)cn1 (single isomer, unassigned) [Example 203, (*R)-3-(((4-(2-((2,6-dimethylpyrimidin-4-yl)amino)pyrazolo[1,5-a]pyridin-5-yl)-6-methylpyridin-3-yl)oxy)methyl)tetrahydrofuran-3-ol] |  |
